Measured values published in PMC3726004 (Bioorganic & medicinal chemistry, 2009).

Columns and labels:
α4β2* nAChRs [1] = target: T1, α4β2* nAChRs (Rattus norvegicus, UniProt P09483+P12390); experiment: [3H]nicotine; format: binding
α4β2* nAChRs [2] = target: T1, α4β2* nAChRs; experiment: nicotine-evoked 86Rb+ efflux from rat thalamic synaptosomes; format: biochemical
VMAT2 = VMAT2 (Rattus norvegicus, UniProt Q01827); experiment: [3H]MTBZ or [3H]DTBZ binding to rat synaptic vesicle membranes
[3] = target: serotonin transporter (SERT) (Rattus norvegicus, UniProt P31652); experiment: [3H]5-HT uptake into rat hippocampal synaptosomes; format: biochemical
Chain of serotonin transporter (SERT) (P31652 whole entry): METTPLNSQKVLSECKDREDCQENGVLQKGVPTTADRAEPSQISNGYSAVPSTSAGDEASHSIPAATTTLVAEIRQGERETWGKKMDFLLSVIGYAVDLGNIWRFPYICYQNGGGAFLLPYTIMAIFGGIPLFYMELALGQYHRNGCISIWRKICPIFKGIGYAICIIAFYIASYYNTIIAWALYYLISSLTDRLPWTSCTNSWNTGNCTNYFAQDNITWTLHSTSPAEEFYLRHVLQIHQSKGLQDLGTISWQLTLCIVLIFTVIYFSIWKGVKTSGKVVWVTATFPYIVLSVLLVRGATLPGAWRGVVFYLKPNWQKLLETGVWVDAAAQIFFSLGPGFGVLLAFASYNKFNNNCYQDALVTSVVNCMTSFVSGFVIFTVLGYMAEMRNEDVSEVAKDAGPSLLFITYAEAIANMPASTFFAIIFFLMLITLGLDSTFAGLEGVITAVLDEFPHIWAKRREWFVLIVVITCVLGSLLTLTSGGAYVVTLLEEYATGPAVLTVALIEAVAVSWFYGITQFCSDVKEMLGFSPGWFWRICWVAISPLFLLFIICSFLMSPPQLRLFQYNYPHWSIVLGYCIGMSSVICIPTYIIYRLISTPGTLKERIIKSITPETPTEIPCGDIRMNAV

Chain of VMAT2 (Q01827 whole entry): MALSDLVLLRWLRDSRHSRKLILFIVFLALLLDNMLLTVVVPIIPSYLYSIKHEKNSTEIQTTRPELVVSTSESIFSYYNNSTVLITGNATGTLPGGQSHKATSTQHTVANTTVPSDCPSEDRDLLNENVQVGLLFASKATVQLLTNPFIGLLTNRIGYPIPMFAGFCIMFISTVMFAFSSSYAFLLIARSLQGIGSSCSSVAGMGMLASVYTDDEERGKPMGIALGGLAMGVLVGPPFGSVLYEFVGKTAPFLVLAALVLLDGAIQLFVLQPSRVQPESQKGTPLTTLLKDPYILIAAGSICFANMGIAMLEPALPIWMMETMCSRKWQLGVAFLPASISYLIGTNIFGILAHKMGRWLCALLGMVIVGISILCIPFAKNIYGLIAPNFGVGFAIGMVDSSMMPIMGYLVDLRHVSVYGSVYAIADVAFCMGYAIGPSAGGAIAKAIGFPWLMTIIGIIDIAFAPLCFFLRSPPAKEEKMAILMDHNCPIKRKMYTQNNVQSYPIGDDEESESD
T1 sequence (P09483 31-630): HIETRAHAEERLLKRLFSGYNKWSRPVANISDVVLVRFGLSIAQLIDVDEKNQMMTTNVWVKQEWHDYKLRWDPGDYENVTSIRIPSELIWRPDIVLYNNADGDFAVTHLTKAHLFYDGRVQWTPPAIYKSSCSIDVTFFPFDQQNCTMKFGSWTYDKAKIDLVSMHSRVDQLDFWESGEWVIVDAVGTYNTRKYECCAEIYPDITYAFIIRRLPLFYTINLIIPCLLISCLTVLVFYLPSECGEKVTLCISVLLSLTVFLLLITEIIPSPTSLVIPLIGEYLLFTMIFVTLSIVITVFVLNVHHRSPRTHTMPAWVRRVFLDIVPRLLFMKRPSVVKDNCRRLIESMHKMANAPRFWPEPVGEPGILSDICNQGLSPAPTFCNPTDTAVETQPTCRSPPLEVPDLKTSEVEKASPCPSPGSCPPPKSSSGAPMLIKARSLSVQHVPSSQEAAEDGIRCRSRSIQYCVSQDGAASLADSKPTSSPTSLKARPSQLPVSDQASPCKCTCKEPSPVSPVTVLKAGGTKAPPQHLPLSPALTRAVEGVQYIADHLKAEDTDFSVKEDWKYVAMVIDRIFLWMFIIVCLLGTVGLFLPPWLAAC
T1 sequence (P12390 25-500): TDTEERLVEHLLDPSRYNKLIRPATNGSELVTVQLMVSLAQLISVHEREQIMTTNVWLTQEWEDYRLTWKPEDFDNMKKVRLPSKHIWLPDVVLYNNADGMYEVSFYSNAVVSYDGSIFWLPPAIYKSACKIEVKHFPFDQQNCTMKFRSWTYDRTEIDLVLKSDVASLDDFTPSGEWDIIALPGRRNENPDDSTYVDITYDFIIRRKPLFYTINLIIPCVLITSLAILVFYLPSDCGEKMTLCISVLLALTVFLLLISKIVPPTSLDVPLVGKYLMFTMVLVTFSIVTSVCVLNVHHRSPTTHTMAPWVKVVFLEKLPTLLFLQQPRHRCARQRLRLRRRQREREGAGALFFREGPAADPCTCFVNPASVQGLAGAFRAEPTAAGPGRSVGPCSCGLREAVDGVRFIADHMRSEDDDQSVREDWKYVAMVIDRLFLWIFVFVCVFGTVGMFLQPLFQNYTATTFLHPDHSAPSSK

With `CN1C(CC(=O)c2ccccc2)CCC[C@H]1CC(OC(=O)c1ccccc1)c1ccccc1.Cl` (stereo in doubt) [Compound 2, (2S, 6S, 2R)-2-[6-(2-Benzoyloxy-2-phenylethyl)-1-methylpiperidin-2-yl]-1-phenylethanone hydrochloride] the “fold less potent than analog 10 in the [3H]nicotine binding assay” value (α4β2* nAChRs [1]) was 360 fold, the “fold less potent than lobeline in inhibiting [3H]nicotine binding (α4β2*)” value (α4β2* nAChRs [1]) was 215–4800 fold and the “extent of inhibition of nicotine-evoked 86Rb+ efflux” value (α4β2* nAChRs [2]) was “completely inhibited”.
With `CC(=O)OC(C[C@@H]1CCCC(CC(=O)c2ccccc2)N1C)c1ccccc1.Cl` (stereo in doubt) [Compound 5, (2S, 6S, 2R)-2-[6-(2-Acetyloxy-2-phenylethyl)-1-methylpiperidin-2-yl]-1-phenylethanone hydrochloride] the “potency compared with lobeline at VMAT2” value (VMAT2) was “equipotent”, the “potency compared with lobeline at SERT” value [3] was “equipotent” and the “fold less potent than lobeline in inhibiting [3H]nicotine binding (α4β2*)” value (α4β2* nAChRs [1]) was 15 to 125 fold.
In the case of `CCC(=O)OC(C[C@@H]1CCCC(CC(=O)c2ccccc2)N1C)c1ccccc1.Cl` (stereo in doubt) [Compound 6, (2S, 6S, 2R)-2-[6-(2-Propionyloxy-2-phenylethyl)-1-methylpiperidin-2-yl]-1-phenylethanone hydrochloride], the “fold less potent than lobeline in inhibiting [3H]nicotine binding (α4β2*)” value (α4β2* nAChRs [1]) was 15 to 125 fold.
With `CCCC(=O)OC(C[C@@H]1CCCC(CC(=O)c2ccccc2)N1C)c1ccccc1.Cl` (stereo in doubt) [Compound 7, (2S, 6S, 2R)-2-[6-(2-Butyryloxy-2-phenylethyl)-1-methylpiperidin-2-yl]-1-phenylethanone hydrochloride] the “fold less potent than lobeline in inhibiting [3H]nicotine binding (α4β2*)” value (α4β2* nAChRs [1]) was 15 to 125 fold.
`CC(C)C(=O)OC(C[C@@H]1CCCC(CC(=O)c2ccccc2)N1C)c1ccccc1.Cl` (stereo in doubt) [Compound 8, (2S, 6S, 2R)-2-[6-(2-Isobutyryloxy-2-phenylethyl)-1-methylpiperidin-2-yl]-1-phenylethanone hydrochloride] was tested, and the “fold less potent than lobeline in inhibiting [3H]nicotine binding (α4β2*)” value (α4β2* nAChRs [1]) was 15 to 125 fold.
`CN1C(CC(=O)c2ccccc2)CCC[C@H]1CC(OS(=O)(=O)c1ccccc1)c1ccccc1.Cl` (stereo in doubt) [Compound 10, (2S, 6S, 2R)-2-[6-(2-Benzenesulfonyloxy-2-phenylethyl)-1-methylpiperidin-2-yl]-1-phenylethanone hydrochloride] was tested, and the “potency compared with lobeline at VMAT2” value (VMAT2) was “equipotent”, the “potency compared with lobeline at SERT” value [3] was “equipotent” and the “extent of inhibition of nicotine-evoked 86Rb+ efflux” value (α4β2* nAChRs [2]) was “completely inhibited”.
For `Cc1ccc(S(=O)(=O)OC(C[C@@H]2CCCC(CC(=O)c3ccccc3)N2C)c2ccccc2)cc1.Cl` (stereo in doubt) [Compound 11, (2S, 6S, 2R)-2-[6-(2-p-Toluenesulfonyloxy-2-phenylethyl)-1-methylpiperidin-2-yl]-1-phenylethanone hydrochloride], the “potency compared with lobeline at α4β2* nAChRs ([3H]nicotine binding)” value (α4β2* nAChRs [1]) was “equipotent”.
For `COc1ccc(C(=O)O[C@@H](C[C@@H]2CCC[C@H](CC(=O)c3ccccc3)N2C)c2ccccc2)cc1.Cl` [Compound 4, (2S, 6S, 2R)-2-[6-(2-Anisoyloxy-2-phenylethyl)-1-methylpiperidin-2-yl]-1-phenylethanone hydrochloride], the “potency compared with lobeline at VMAT2” value (VMAT2) was “equipotent” and the “fold less potent than lobeline in inhibiting [3H]nicotine binding (α4β2*)” value (α4β2* nAChRs [1]) was 215–4800 fold.
With `CN1[C@@H](CC(=O)c2ccccc2)CCC[C@H]1C[C@H](OC(=O)c1cccs1)c1ccccc1.Cl` [Compound 9, (2S, 6S, 2R)-2-[6-(2-(2-Thiophen)-carboxyl-2-phenylethyl)-1-methylpiperidin-2-yl]-1-phenylethanone hydrochloride] the “fold less potent than lobeline in inhibiting [3H]nicotine binding (α4β2*)” value (α4β2* nAChRs [1]) was 215–4800 fold.
